Where a SMILES comes first, the peptide text is derived from it. [ ]: non-standard residue; d: D form. Nle = CCCC[C@H](N)C(=O)O
Target: T1, endogenous hPTHR1 (Homo sapiens, UniProt Q03431)
T1 construct: Saos-2, in which is endogenously expressed the hPTHR1; endogenous in cells
T1 sequence (Q03431 27-593): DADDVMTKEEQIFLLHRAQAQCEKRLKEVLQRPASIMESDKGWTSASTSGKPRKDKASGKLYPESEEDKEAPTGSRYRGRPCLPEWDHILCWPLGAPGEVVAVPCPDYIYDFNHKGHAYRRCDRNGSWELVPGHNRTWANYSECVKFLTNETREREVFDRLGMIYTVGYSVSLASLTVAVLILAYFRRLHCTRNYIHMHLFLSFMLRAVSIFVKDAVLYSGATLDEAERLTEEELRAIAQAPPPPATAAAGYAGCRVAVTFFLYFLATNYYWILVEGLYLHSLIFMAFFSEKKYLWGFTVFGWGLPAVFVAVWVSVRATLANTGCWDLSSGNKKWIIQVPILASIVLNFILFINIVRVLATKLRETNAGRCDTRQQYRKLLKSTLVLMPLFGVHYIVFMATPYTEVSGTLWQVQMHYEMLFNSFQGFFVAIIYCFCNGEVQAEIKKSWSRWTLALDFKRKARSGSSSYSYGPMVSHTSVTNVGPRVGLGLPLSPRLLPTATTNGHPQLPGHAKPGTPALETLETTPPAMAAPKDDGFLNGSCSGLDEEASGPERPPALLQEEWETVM
Assay: Antagonism of PTH(1-34)- and PTHrP(1-36)-induced cAMP response (GloSensor) in SGS-72 cells
Assay type: cell-based
Conditions: IC50 PTH(1-34) (Table 6, nanomolar value), antagonist pre-treatment 15 minutes, PTH(1-34) 0.3 nM
Description: cAMP signaling was assessed in the HEK293-derived or SaOS2-derived cell lines stably expressing the luciferase-based GloSensorTM cAMP reporter ([…] al., Paper presented at: Novel Signaling Mechanisms and Bone Cell Biology 2014; Binkowski et al., Methods in molecular biology. 756:263-271). HEK-293 cells were further transfected to stably express the hPTHR1, hPTHR1-H223R, or hPTHR1-T410P. The cells were seeded into 96-well white plates and were assayed 24 to 48 hours post-confluency. Assays were performed at room temperature in CO2-independent culture media (Life Technologies, Corp., Carlsbad, Calif.) containing 0.1% BSA (CIDB). The cells were pre-loaded with luciferin (0.5 mM in CIDB) for 15 minutes, then PTH peptides were added at varying concentrations. cAMP-dependent luminescence was measured at two-minute intervals using a PerkinElmer Envision plate reader. The time at which maximum luminescence (cps) observed with agonist alone, typically at 10-20 minutes after agonist addition, was used to obtain data from wells containing antagonist with or without agonist, to thus generate antagonist ligand dose-response curves. The resulting cps values were then plotted against ligand concentration using GraphPad Prism 7.0 software and a four-parameter logistics curve fitting equation, which yielded parameters of inhibitory potency (pIC50). Pharmacological properties of the ligands were assessed in cells expressing the PTHR1 and the GloSensorTM cAMP reporter. The assays used GP-2.3 cells, derived from HEK293 cells by stable transfection with the hPTHR1 and GloSensorTM, as well as SGS-72 cells, which are derived from the human osteosarcoma cell line, Saos-2, in which is endogenously expressed the hPTHR1, by stable transfection with GloSensorTM. Binding of representative polypeptides to the PTHR1 was assessed in GP-2.3 cells by radioligand competition methods (FIGS. 1A and 1B, Table 3). […] In Table 5, antagonist assays were performed in SGS-72 cells (SaOS2 cells with stable GloSensorTM cAMP reporter) at room temperature. […] The mean (±sem) concentration of antagonist that inhibited the maximum agonist-induced response observed in the absence of antagonist (at 40 minutes) is reported in units of -log M (pIC50), and the corresponding nanomolar value is shown below each pIC50 value. Data are means of the number of seven experiments. The PTH(1-34)-induced maximum luminescence was 500,000 cps and the basal was 5,000 cps. TMR indicates Lys13 modified at epsilon amino function with TMR. The data are illustrated in FIG. 7A. […] Date are means (±SEM) of the number of separate experiments indicated by n.

- IC50: 1.75 nM
Structure (SMILES): CCCC[C@H](NC(=O)[C@H](CC(C)C)NC(=O)[C@H](CCC(N)=O)NC(=O)[C@@H](N)[C@@H](C)CC)C(=O)N[C@@H](Cc1c[nH]cn1)C(=O)N[C@@H](CCC(N)=O)C(=O)N[C@@H](CCCNC(=N)N)C(=O)N[C@H](Cc1c[nH]c2ccccc12)C(=O)N[C@@H](CCCCN)C(=O)N[C@@H](Cc1c[nH]c2ccccc12)C(=O)N[C@H](C(=O)N[C@@H](CCC(N)=O)C(=O)N[C@@H](CC(=O)O)C(=O)N[C@@H](C)C(=O)N[C@@H](CCCNC(=N)N)C(=O)N[C@@H](CCCNC(=N)N)C(=O)N[C@@H](CCCNC(=N)N)C(=O)N[C@@H](C)C(=O)N[C@@H](Cc1c[nH]c2ccccc12)C(=O)N[C@@H](CC(C)C)C(=O)N[C@@H](Cc1c[nH]cn1)C(=O)N[C@@H](CCCCN)C(=O)N[C@@H](CC(C)C)C(=O)N[C@H](C(=O)N[C@@H](C)C(=O)N[C@@H](CCC(=O)O)C(=O)N[C@H](C(=O)N[C@@H](Cc1c[nH]cn1)C(=O)N[C@H](C(=O)N[C@@H](C)C(=O)N[C@@H](CCC(=O)O)C(=O)N[C@@H](Cc1ccc(O)cc1)C(N)=O)[C@@H](C)O)[C@@H](C)CC)[C@@H](C)CC)[C@@H](C)CC [compound 1954, Nle8, dW12, W23, Y36-LA-PTH(5-36)] (H-IQL[Nle]HQR[dW]KWIQDARRRAWLHKLIAEIHTAEY-NH2; N-terminus assumed)

From patent US20190119348A1, “PARATHYROID HORMONE RECEPTOR 1 ANTAGONIST AND INVERSE AGONIST POLYPEPTIDES AND METHODS OF THEIR USE” (The General Hospital Corporation, priority 2016, published 2019)
